Experiments:
Assay in all cases: relative viability (nuclei count vs DMSO), 5 days (fraction); higher = more cells survive
[1] = compound: C1=CC2=C(C=C(C(=C2N=C1)O)N=NC3=CC4=C(C=C3)C=C(C=C4)S(=O)(=O)O)S(=O)(=O)O + CC(=O)Nc1cccc(-n2c(=O)n(C3CC3)c(=O)c3c(Nc4ccc(I)cc4F)n(C)c(=O)c(C)c32)c1 [Trametinib] (partner 0.02 µM)
Procedure, shortened: (§1)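 Five library-drug doses in √10 steps were combined with a fixed anchor-drug dose, or a single drug was given alone, by pin tool to lung cancer cell lines in 1536-well plates the day after seeding. Nuclei were stained and counted after 5 days. Relative viability is the nuclei count in treated wells over that in vehicle wells, taken as the median of duplicate plates.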

[2] = compound: C1=CC2=C(C=C(C(=C2N=C1)O)N=NC3=CC4=C(C=C3)C=C(C=C4)S(=O)(=O)O)S(=O)(=O)O + Cc1nc(NC(=O)N2CCC[C@H]2C(N)=O)sc1-c1ccnc(C(C)(C)C(F)(F)F)c1 [Alpelisib] (partner 2 µM)
Procedure, shortened: as §1

[3] = compound: C1=CC2=C(C=C(C(=C2N=C1)O)N=NC3=CC4=C(C=C3)C=C(C=C4)S(=O)(=O)O)S(=O)(=O)O + N=C(N)NC(=N)NCCc1ccccc1 [Phenformin] (partner 250 µM)
Procedure, shortened: as §1

[4] = compound: O=C(NC1CCNCC1)c1n[nH]cc1NC(=O)c1c(Cl)cccc1Cl [AT-7519] + O=C(CCCCCCC(=O)Nc1ccccc1)NO [Vorinostat] (partner 1 µM)
Procedure, shortened: as §1

Cell Line	relative viability ([1]; first compound 0.08 µM)	relative viability ([1]; first compound 0.253 µM)	relative viability ([1]; first compound 0.8 µM)	relative viability ([1]; first compound 2.53 µM)	relative viability ([1]; first compound 8 µM)	relative viability ([2]; first compound 0.08 µM)	relative viability ([2]; first compound 0.253 µM)	relative viability ([2]; first compound 0.8 µM)	relative viability ([2]; first compound 2.53 µM)	relative viability ([2]; first compound 8 µM)	relative viability ([3]; first compound 0.08 µM)	relative viability ([3]; first compound 0.253 µM)	relative viability ([3]; first compound 0.8 µM)	relative viability ([3]; first compound 2.53 µM)	relative viability ([3]; first compound 8 µM)	relative viability ([4]; first compound 0.01 µM)	relative viability ([4]; first compound 0.03162 µM)	relative viability ([4]; first compound 0.3162 µM)	relative viability ([4]; first compound 1 µM)
201T	0.721	0.731	0.713	0.709	0.693	1.02	0.991	0.995	1.06	1.03	0.458	0.426	0.458	0.433	0.306	0.975	0.952	1.01	1.12
A549						0.733	0.708	0.665	0.728	0.662	0.203	0.155	0.189	0.186	0.0602				
A-427	0.721	0.719	0.718	0.781	0.732	1.19	1.07	1.09	1.08	1.17	0.324	0.293	0.283	0.288	0.313	0.894	0.863	0.927	0.768
ABC-1						1.14	0.967	1.03	0.869	1.22	0.236	0.245	0.236	0.237	0.245	1.16	1.14	1.01	1.28
BEN	1.1	1.1	0.948	1.07	1.05	1.26	0.962	0.847	1.04	0.932	0.254	0.274	0.267	0.298	0.234	0.6	0.537	0.593	0.579
CAL-12T	0.369	0.332	0.318	0.332	0.28	1.85	1.13	1.08	1.29	1.13	0.536	0.522	0.502	0.693	0.358	0.777	0.653	0.543	0.108
COR-L23	0.669	0.604	0.609	0.556	0.611	0.818	0.691	0.728	0.704	0.593	0.488	0.43	0.422	0.419	0.45	0.508	0.507	0.344	0.152
COR-L 105	0.514	0.437	0.469	0.48	0.476	1.05	1.03	1.26	0.966	1.08	0.459	0.464	0.421	0.441	0.463	0.791	0.856	0.686	0.499
Calu-6						0.942	0.965	1.1	0.988	1.04									
ChaGo-K-1	0.983	0.908	0.938	0.875	0.798						0.444	0.491	0.525	0.531	0.359	0.734	0.741	0.797	0.752
EBC-1						0.822	0.854	0.743	0.813	1.03									
EKVX	0.346	0.305	0.37	0.341	0.332	1.01	0.849	0.793	0.85	0.903	0.237	0.225	0.235	0.232	0.139	0.671	0.636	0.535	0.786
EMC-BAC-2	0.964	0.853	0.912	0.997	0.911	0.8	0.75	0.711	0.766	0.696	0.587	0.561	0.514	0.526	0.427	0.424	0.422	0.531	0.878
EPLC-272H	0.358	0.276	0.277	0.287	0.282	0.996	0.831	0.876	0.963	0.944	0.284	0.319	0.292	0.28	0.323	0.406	0.328	0.36	0.0395
H3255	0.588	0.614	0.66	0.654	0.624	0.82	0.698	0.717	0.775	0.712	0.348	0.377	0.416	0.394	0.421	0.794	0.816	0.905	0.787
HARA	0.878	0.442	0.869	0.82	0.532	0.907	0.873	0.791	0.894	0.845	0.467	0.459	0.464	0.544	0.479	0.479	0.527	0.588	0.223
HCC-15	0.427	0.387	0.428	0.377	0.365	0.97	0.811	0.807	0.895	0.938	0.491	0.481	0.457	0.422	0.444	0.857	0.796	0.799	0.565
HCC-44	1.04	1.01	1.09	1.04	0.797	0.867	0.786	0.779	0.893	0.893	0.126	0.218	0.249	0.17	0.184	1.16	1.08	1.11	1.08

Cell Line	relative viability ([1]; first compound 0.08 µM)	relative viability ([1]; first compound 0.253 µM)	relative viability ([1]; first compound 0.8 µM)	relative viability ([1]; first compound 2.53 µM)	relative viability ([1]; first compound 8 µM)	relative viability ([2]; first compound 0.08 µM)	relative viability ([2]; first compound 0.253 µM)	relative viability ([2]; first compound 0.8 µM)	relative viability ([2]; first compound 2.53 µM)	relative viability ([2]; first compound 8 µM)	relative viability ([3]; first compound 0.08 µM)	relative viability ([3]; first compound 0.253 µM)	relative viability ([3]; first compound 0.8 µM)	relative viability ([3]; first compound 2.53 µM)	relative viability ([3]; first compound 8 µM)	relative viability ([4]; first compound 0.01 µM)	relative viability ([4]; first compound 0.03162 µM)	relative viability ([4]; first compound 0.3162 µM)	relative viability ([4]; first compound 1 µM)
HCC-78	0.804	0.724	0.813	0.712	0.675	0.406	0.325	0.319	0.345	0.266	0.725	0.617	0.651	0.74	0.685	0.411	0.409	0.438	0.417
HCC-366	0.402	0.342	0.398	0.432	0.302	0.386	0.344	0.389	0.401	0.439	0.646	0.618	0.585	0.631	0.589	0.254	0.325	0.278	0.241
HCC-827	0.505	0.521	0.524	0.524	0.578	1.05	0.989	0.807	0.978	1.05	0.405	0.335	0.397	0.416	0.45	0.928	0.827	0.958	1.02
HOP-62	0.428	0.392	0.452	0.37	0.359	1.27	1.14	1.19	0.817	0.704	0.836	0.584	0.618	0.645	0.53	0.555	0.608	0.682	0.565
IA-LM						0.85	0.561	0.751	0.965	0.832						0.607	0.501	1.01	0.723
LC-2-ad	0.932	0.851	0.941	0.892	0.98	0.619	0.783	0.828	0.857	0.98	0.575	0.553	0.548	0.588	0.651	0.717	0.665	0.748	0.781
LCLC-97TM1	0.197	0.183	0.191	0.182	0.15		0.296		0.248	0.296	0.403	0.491	0.434	0.45	0.384	0.955	0.703	0.526	0.379
NCI-H522	0.494	0.676	0.748	0.791	0.894						0.658	0.64	0.71	0.603	0.612	0.933	0.815	0.963	1.05
NCI-H1299						0.985	1.04	1.01	0.997	1.05									
NCI-H1563						0.931	0.94	1.07	1.11	1.1	0.63	0.677	0.684	0.626	0.629				
NCI-H1623											0.565	0.541	0.609	0.589	0.278				
NCI-H1648		0.57			0.59											0.479		0.29	0.3
NCI-H1650	0.672	0.547	0.512	0.682	0.433						0.427	0.444	0.42	0.418	0.322	0.534	0.681	0.489	0.23
NCI-H1703						0.369	0.266	0.39	0.385	0.409									
NCI-H1792	0.5	0.387	0.454	0.494	0.391	0.861	0.639	0.66	0.715	0.743	0.261	0.343	0.254		0.295				
NCI-H2342	0.82	0.884	0.943	0.808	0.764						0.629	0.582	0.537	0.621	0.528	0.773	0.696	0.772	0.631
SW 900	0.873	0.764	0.699	0.968	0.821						0.576	0.669	0.517	0.552	0.275	0.398	0.482	0.294	0.493

From the supplement of paper PMC10307832
